# Data published in patent US10689354B2, “Aminoazole derivative” (Teijin Pharma Limited, priority 2015, dated 2020).
# Legend:
# [1] = molecular target: T1, androgen receptor (AR-LBD) (Rattus norvegicus, UniProt P15207); assay: Evaluation of androgen receptor affinity (PolarScreen Androgen Receptor Competitor Assay Kit, Red; fluorescence polarization); conditions: 22° C. for 5 hours, relative to binding rate of 1 μM DHT, read-out: AR affinity (pEC50) (converted)
# T1 construct: 5 μL of 2×AR-LBD/Fluoromone AL Red Complex contained in the kit; purchased Invitrogen
# T1 sequence (P15207 651-882 limits assumed): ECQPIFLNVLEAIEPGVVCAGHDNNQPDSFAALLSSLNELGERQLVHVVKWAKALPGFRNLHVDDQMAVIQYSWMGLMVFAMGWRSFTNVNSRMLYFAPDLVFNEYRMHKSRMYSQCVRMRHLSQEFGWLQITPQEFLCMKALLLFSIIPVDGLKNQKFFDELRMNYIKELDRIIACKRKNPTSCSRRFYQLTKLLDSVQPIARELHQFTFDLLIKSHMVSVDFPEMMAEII
# Procedure, shortened: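 Test compound and the 2× AR-LBD/Fluoromone AL Red complex were combined in duplicate wells. After reacting 5 h at 22° C, polarization was measured. pEC50 was derived by 4-parameter fitting, normalizing to binding obtained with 1 μM dihydrotestosterone.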
# human androgen receptor = molecular target: T2, human androgen receptor (Homo sapiens, UniProt P10275); assay: Reporter assay of an androgen receptor responsive sequence (luciferase, transiently transfected HEK293 cells); format: cell-based; conditions: 24 hours incubation, relative to activity of 100 nM DHT, read-out: AR transcriptive activity (pEC50) (converted)
# T2 construct: expressed in transfected cells; host or cells: HEK293
# T2 sequence (P10275 1-920): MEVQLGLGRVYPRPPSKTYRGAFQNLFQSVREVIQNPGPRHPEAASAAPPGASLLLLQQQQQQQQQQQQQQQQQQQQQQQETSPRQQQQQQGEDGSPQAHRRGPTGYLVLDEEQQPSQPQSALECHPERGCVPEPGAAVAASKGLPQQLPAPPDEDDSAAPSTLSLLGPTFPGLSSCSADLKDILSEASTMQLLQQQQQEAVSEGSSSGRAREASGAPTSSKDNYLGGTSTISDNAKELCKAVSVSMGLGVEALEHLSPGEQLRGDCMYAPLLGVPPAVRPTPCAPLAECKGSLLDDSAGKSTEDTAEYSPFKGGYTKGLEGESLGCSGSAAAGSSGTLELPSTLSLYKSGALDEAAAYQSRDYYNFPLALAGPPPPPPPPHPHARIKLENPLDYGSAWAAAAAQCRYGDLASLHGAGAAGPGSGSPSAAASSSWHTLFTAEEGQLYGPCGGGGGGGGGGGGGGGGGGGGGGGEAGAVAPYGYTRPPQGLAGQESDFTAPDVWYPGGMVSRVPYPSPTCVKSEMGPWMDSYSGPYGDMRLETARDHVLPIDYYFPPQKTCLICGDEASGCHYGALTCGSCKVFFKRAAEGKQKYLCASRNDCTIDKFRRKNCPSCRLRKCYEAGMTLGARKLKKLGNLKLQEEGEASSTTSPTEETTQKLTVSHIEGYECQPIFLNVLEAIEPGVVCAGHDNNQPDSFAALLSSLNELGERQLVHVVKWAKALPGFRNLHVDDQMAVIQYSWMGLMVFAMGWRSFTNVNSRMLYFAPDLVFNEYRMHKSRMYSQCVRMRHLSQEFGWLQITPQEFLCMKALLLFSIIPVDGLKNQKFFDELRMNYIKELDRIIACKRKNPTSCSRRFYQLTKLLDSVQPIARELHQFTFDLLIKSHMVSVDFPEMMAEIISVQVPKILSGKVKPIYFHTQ
# Procedure, shortened: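 Agonism scored as pEC50, fitted by 4-parameter curve against the response to 100 nM DHT, from dual-luciferase readout after 24 h compound treatment. Cells were HEK293 co-transfected (3 h) with human AR expression vector, androgen-responsive firefly reporter and Renilla control, in charcoal-stripped serum.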
Compound,EC50 [1],EC50 (human androgen receptor)
"Cc1sc(N(Cc2ccccc2)c2ccc(C#N)c(C(F)(F)F)c2)nc1C(=O)NS(C)(=O)=O [Compound 451, 2-[N-benzyl-4-cyano-3-(trifluoromethyl)anilino]-5-methyl-N-methylsulfonyl-thiazole-4-carboxamide]",0.0251 µM,0.0501 µM
"Cc1oc(N(Cc2cc3ccccc3s2)c2ccc(C#N)cc2)nc1C(=O)NS(C)(=O)=O [Compound 618, 2-[N-(benzothiophen-2-ylmethyl)-4-cyano-anilino]-5-methyl-N-methylsulfonyl-oxazole-4-carboxamide]",0.02 µM,0.126 µM
"Cc1oc(N(CCc2ccc(C#N)cc2)Cc2ccc(Cl)cc2)nc1C(=O)NS(C)(=O)=O [Compound 548, 2-[(4-chlorophenyl)methyl-[2-(4-cyanophenyl)ethyl]amino]-5-methyl-N-methylsulfonyl-oxazole-4-carboxamide]",0.0251 µM,0.126 µM
"Cc1oc(N(Cc2ccc(F)cc2)c2ccc(C#N)cc2)nc1C(=O)NS(C)(=O)=O [Compound 610, 2-[4-cyano-N-[(4-fluorophenyl)methyl]anilino]-5-methyl-N-methylsulfonyl-oxazole-4-carboxamide]",0.1 µM,2.51 µM
"Cc1oc(N(CCc2ccc(Cl)cc2)Cc2ccccc2)nc1C(=O)NS(C)(=O)=O [Example 220, 2-[benzyl-[2-(4-chlorophenyl)ethyl]amino]-5-methyl-N-methylsulfonyl-oxazole-4-carboxamide]",0.0398 µM,0.316 µM
"CCc1oc(N(Cc2ccc(OC(F)F)c(F)c2)c2ccc(C#N)cc2)nc1C(=O)NS(C)(=O)=O [Compound 654, 2-[4-cyano-N-[[4-(difluoromethoxy)-3-fluoro-phenyl]methyl]anilino]-5-ethyl-N-methylsulfonyl-oxazole-4-carboxamide]",0.0398 µM,0.631 µM
"Cc1oc(N(Cc2ccccc2)c2ccc(C(F)(F)F)nc2)nc1C(=O)NS(C)(=O)=O [Compound 620, 2-[benzyl-[6-(trifluoromethyl)-3-pyridyl]amino]-5-methyl-N-methylsulfonyl-oxazole-4-carboxamide]",0.631 µM,> 10 µM
"Cc1sc(N(CCc2ccc(C#N)cc2)Cc2ccc(Cl)cc2)nc1C(=O)NS(=O)(=O)Cc1cccc(F)c1 [Compound 322, 2-[(4-chlorophenyl)methyl-[2-(4-cyanophenyl)ethyl]amino]-N-[(3-fluorophenyl)methylsulfonyl]-5-methyl-thiazole-4-carboxamide]",0.0631 µM,> 10 µM
"Cc1oc(N(CCc2ccc(Cl)cc2)Cc2ccc(F)cc2)nc1C(=O)NS(C)(=O)=O [Compound 550, 2-[2-(4-chlorophenyl)ethyl-[(4-fluorophenyl)methyl]amino]-5-methyl-N-methylsulfonyl-oxazole-4-carboxamide]",0.0631 µM,0.251 µM
"Cc1oc(N(Cc2ccc(Cl)cc2)c2ccc(C#N)cc2)nc1C(=O)NS(C)(=O)=O [Example 286, 2-[N-[(4-chlorophenyl)methyl]-4-cyano-anilino]-5-methyl-N-methylsulfonyl-oxazole-4-carboxamide]",0.501 µM,0.316 µM
"Cc1oc(N(CC[C@@H]2CCCC[C@H]2O)c2ccc(C#N)cc2)nc1C(=O)NS(C)(=O)=O (racemic) [Compound 624, 2-[4-cyano-N-[2-[trans-2-hydroxycyclohexyl]ethyl]anilino]-5-methyl-N-methylsulfonyl-oxazole-4-carboxamide]",0.794 µM,7.94 µM

# The remaining lines, values ahead:
EC50 [1],EC50 (human androgen receptor),Compound
0.0794 µM,> 10 µM,"Cc1sc(N(Cc2ccccc2)c2ccc(C#N)cc2)nc1C(=O)NS(=O)(=O)CS(C)(=O)=O [Compound 382, 2-(N-benzyl-4-cyano-anilino)-5-methyl-N-(methylsulfonylmethylsulfonyl)thiazole-4-carboxamide]"
0.0158 µM,0.0631 µM,"COCCCS(=O)(=O)NC(=O)c1nc(N(Cc2ccc(Cl)c(Cl)c2)c2ccc(C#N)cc2)sc1C [Example 190, 2-[4-cyano-N-[(3,4-dichlorophenyl)methyl]anilino]-N-(3-methoxypropylsulfonyl)-5-methyl-thiazole-4-carboxamide]"
0.0251 µM,1 µM,"COCCCS(=O)(=O)NC(=O)c1nc(N(CCc2ccc(C#N)cc2)Cc2ccc(OC(F)(F)F)cc2)sc1C [Compound 740, 2-[2-(4-cyanophenyl)ethyl-[[4-(trifluoromethoxy)phenyl]methyl]amino]-N-(3-methoxypropylsulfonyl)-5-methyl-thiazole-4-carboxamide]"
0.2 µM,> 10 µM,"Cc1sc(N(Cc2ccccc2)c2ccc(C#N)cc2)nc1C(=O)NS(=O)(=O)CC(C)C [Compound 371, 2-(N-benzyl-4-cyano-anilino)-N-isobutylsulfonyl-5-methyl-thiazole-4-carboxamide]"
0.0316 µM,0.0501 µM,"Cc1sc(N(Cc2cccc(C(F)F)c2)c2ccc(C#N)cc2)nc1C(=O)NS(C)(=O)=O [Compound 450, 2-[4-cyano-N-[[3-(difluoromethyl)phenyl]methyl]anilino]-5-methyl-N-methylsulfonyl-thiazole-4-carboxamide]"
0.0501 µM,1.26 µM,"Cc1sc(N(Cc2ccccc2)c2ccc(Cl)c(Cl)c2)nc1C(=O)NS(C)(=O)=O [Compound 37, 2-(N-benzyl-3,4-dichloro-anilino)-5-methyl-N-methylsulfonyl-thiazole-4-carboxamide]"
0.0251 µM,0.0501 µM,"Cc1sc(N(Cc2cccc(Cl)c2)c2ccc(C#N)cc2)nc1C(=O)NS(C)(=O)=O [Compound 18, 2-[N-[(3-chlorophenyl)methyl]-4-cyano-anilino]-5-methyl-N-methylsulfonyl-thiazole-4-carboxamide]"
0.0398 µM,> 10 µM,"Cc1sc(N(Cc2ccc(OC(F)(F)F)cc2)c2ccc(C#N)cc2)nc1C(=O)NS(=O)(=O)CS(C)(=O)=O [Example 198, 2-[4-cyano-N-[[4-(trifluoromethoxy)phenyl]methyl]anilino]-5-methyl-N-(methylsulfonylmethylsulfonyl)thiazole-4-carboxamide]"
0.0631 µM,0.794 µM,"Cc1sc(N(Cc2cc(Cl)ccc2F)c2ccc(C#N)cc2)nc1C(=O)NS(C)(=O)=O [Compound 126, 2-[N-[(5-chloro-2-fluoro-phenyl)methyl]-4-cyano-anilino]-5-methyl-N-methylsulfonyl-thiazole-4-carboxamide]"
0.158 µM,0.316 µM,"Cc1sc(N(Cc2cc(F)ccc2F)c2ccc(C#N)cc2)nc1C(=O)NS(C)(=O)=O [Compound 103, 2-[4-cyano-N-[(2,5-difluorophenyl)methyl]anilino]-5-methyl-N-methylsulfonyl-thiazole-4-carboxamide]"
0.0316 µM,0.251 µM,"COCCCS(=O)(=O)NC(=O)c1nc(N(CCc2ccc(C#N)cc2)Cc2ccc(Cl)cc2)sc1C [Compound 739, 2-[(4-chlorophenyl)methyl-[2-(4-cyanophenyl)ethyl]amino]-N-(3-methoxypropylsulfonyl)-5-methyl-thiazole-4-carboxamide]"
0.0398 µM,0.501 µM,"Cc1sc(N(Cc2ccc(OC(F)(F)F)cc2F)c2ccc(C#N)cc2)nc1C(=O)NS(C)(=O)=O [Example 178, 2-[4-cyano-N-[[2-fluoro-4-(trifluoromethoxy)phenyl]methyl]anilino]-5-methyl-N-methylsulfonyl-thiazole-4-carboxamide]"
0.1 µM,0.501 µM,"COc1ccccc1CN(c1ccc(C#N)cc1)c1nc(C(=O)NS(C)(=O)=O)c(C)s1 [Compound 455, 2-[4-cyano-N-[(2-methoxyphenyl)methyl]anilino]-5-methyl-N-methylsulfonyl-thiazole-4-carboxamide]"
